From patent US12360111B2, “G protein-coupled receptor screening systems” (The University of North Carolina at Chapel Hill, priority 2018, dated 2025)
Entries after “also recorded” stand apart in the source; their conditions may differ. Read-outs that look alike come from different tables or passages of the source.

What was measured:
[1] = test system: HEK293 cells; test: Calcium release in HEK293 cells without serotonin receptors; format: cell-based; conditions: cells do not express serotonin (5-HT) receptors
[2] = target: T1, KOR, Gαi/o-class TRUPATH sensors (Homo sapiens, UniProt P41145); format: cell-based
T1 construct: expressed in transfected cells
T1 sequence (P41145 whole entry): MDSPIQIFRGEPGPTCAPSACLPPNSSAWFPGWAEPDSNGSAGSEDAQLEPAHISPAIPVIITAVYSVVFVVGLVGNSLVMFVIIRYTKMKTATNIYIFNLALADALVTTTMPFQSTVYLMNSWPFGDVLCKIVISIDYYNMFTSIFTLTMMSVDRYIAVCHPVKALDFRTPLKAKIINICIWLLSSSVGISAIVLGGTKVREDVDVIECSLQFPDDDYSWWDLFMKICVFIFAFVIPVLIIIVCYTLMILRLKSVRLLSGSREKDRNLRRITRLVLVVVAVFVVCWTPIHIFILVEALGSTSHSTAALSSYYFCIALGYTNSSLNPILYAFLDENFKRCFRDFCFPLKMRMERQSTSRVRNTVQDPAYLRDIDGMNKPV

[3] = test system: Gα proteins fused to the μ-opioid receptor (MOR); test: Competition radioligand binding at six Gα proteins fused to MOR
[4] = target: T2, μ-opioid receptor (MOR) (Homo sapiens, UniProt P35372); test: TRUPATH after alkylation of MOR with β-FNA (receptor reserve); format: cell-based; conditions: increasing β-FNA treatment
T2 construct: expressed in transfected cells
T2 sequence (P35372 whole entry): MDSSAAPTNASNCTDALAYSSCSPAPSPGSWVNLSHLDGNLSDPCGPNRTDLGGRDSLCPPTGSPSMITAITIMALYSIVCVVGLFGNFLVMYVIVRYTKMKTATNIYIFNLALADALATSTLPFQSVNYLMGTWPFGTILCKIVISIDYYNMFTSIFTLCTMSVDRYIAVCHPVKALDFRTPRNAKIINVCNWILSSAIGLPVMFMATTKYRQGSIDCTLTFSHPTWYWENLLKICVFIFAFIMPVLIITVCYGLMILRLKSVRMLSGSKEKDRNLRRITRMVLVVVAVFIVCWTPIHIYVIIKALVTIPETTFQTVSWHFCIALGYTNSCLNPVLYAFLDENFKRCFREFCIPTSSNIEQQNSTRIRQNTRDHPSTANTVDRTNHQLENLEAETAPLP

[5] = test system: mu-opioid receptor fused to Gαi1-RLuc8 chimera (MOR-Gi1RLuc); conditions: for binding to and GPPNHP elution from membranes (in words): unfused MOR vs MOR-Gαi1 membranes
[6] = target: T3, μ-opioid receptor (MOR) fused to Gαi1 protein (MOR-Gi1) (Homo sapiens, UniProt P35372+P63096); test: ADSoRB screen with radiolabeled agonist tracer at MOR-Gi1 microsomes; format: binding
T3 construct: expressed in transfected cells; host or cells: HEK293 suspension cells, microsomal membranes
T3 sequence (P35372+P63096 fused): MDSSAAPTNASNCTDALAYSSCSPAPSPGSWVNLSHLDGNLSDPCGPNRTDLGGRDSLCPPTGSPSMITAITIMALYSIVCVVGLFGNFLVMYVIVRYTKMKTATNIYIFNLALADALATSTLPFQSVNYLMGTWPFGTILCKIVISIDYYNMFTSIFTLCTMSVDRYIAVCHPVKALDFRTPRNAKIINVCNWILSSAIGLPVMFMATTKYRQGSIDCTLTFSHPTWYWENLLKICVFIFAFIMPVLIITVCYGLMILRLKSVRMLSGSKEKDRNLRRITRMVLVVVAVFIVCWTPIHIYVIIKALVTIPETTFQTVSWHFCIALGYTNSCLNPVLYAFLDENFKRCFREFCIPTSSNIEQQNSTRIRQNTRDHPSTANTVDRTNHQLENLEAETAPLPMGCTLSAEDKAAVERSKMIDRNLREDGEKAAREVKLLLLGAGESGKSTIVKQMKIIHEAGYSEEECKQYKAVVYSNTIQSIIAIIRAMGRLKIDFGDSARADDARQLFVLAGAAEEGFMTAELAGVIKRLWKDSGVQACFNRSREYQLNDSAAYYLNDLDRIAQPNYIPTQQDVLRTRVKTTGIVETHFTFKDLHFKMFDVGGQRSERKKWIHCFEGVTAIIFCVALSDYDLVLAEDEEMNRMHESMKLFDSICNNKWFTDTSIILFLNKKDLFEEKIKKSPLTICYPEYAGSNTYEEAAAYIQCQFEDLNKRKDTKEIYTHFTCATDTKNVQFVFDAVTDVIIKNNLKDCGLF

[7] = target: T4, mu-opioid receptor unfused (MOR) (Homo sapiens, UniProt P35372); format: binding
T4 construct: expressed in transfected cells
T4 sequence (P35372 whole entry, the tested form may be a part): as the sequence (P35372 whole entry) above

[8] = test system: 5-HT5A receptor fused to Gi, Gq or Gs; test: [35S]GTPγS loading at 5-HT5A receptor-Gα fusions; format: biochemical; conditions: Gi vs Gq vs Gs fusions
[9] = test system: serotonin-5A receptor (HTR5A)-Gαi1 RLuc fusion; test: Fusion BRET at HTR5A-Gαi1 RLuc; format: cell-based

COc1cc(CC(C)N)c(OC)cc1I (centres unmarked) [DOI]
calcium release (in words) [1]: do not cause calcium release

O=C(c1ccccn1)N(Cc1cccs1)C1(C(=O)NC2CCCCC2)CCCCC1 [ML139]
efficacy across transducers (in words) [2]: activated all transducers with equal efficacy

Leu-enkephalin
affinity shift vs unfused MOR (in words) [3]: shift compared to unfused MOR

COC(=O)N1CCN(C(=O)Cc2ccc(Cl)c(Cl)c2)C(CN2CCCC2)C1 (centres unmarked) [GR89,696]
efficacy across transducers (in words) [2]: activated all transducers with equal efficacy

COC(=O)/C=C/C(=O)N[C@@H]1CC[C@@]2(O)[C@H]3Cc4ccc(O)c5c4[C@@]2(CCN3CC2CC2)[C@H]1O5 [β-FNA]
effect on maximal efficacy (Emax) [4]: strong inhibition of maximal efficacy | effect on potency [4]: minimal effect on potency

CCN(CC)C(=O)N[C@H]1C=C2c3cccc4[nH]cc(c34)C[C@H]2N(C)C1 [Lisuride]
calcium release (in words) [1]: do not cause calcium release

C[C@@H](NC(=O)[C@@H](N)Cc1ccc(O)cc1)C(=O)NCC(=O)N(C)[C@@H](Cc1ccccc1)C(=O)NCCO [DAMGO]
affinity shift vs unfused MOR (in words) [3]: shift compared to unfused MOR | binding to and GPPNHP elution from membranes (in words) [5]: ability to bind and elute

C[C@@H](NC(=O)[C@@H](N)Cc1ccc(O)cc1)C(=O)NCC(=O)N(C)[C@@H](Cc1ccccc1)C(=O)NCCO [[3H]DAMGO]
elution upon complex dissociation/uncoupling with GPPNHP ([6]; GPPNHP elution): 30 % of total agonist added | elution with buffer control ([6]; buffer elution): 2 % of total agonist added | unbound tracer ([5]; MOR-Gi1RLuc complex): 23% | elution upon complex dissociation with GPPNHP ([5]; high affinity MOR-Gi1RLuc complex): 7 % of total | binding to and GPPNHP elution from membranes (in words) ([5]; listed as [^3H]DAMGO): binds more strongly to the MOR-Gαi1 complex; also recorded: elutes to a greater extent | elution upon complex dissociation with GPPNHP [7]: 0.8 % of total | unbound tracer [7]: 67%

NCCc1c[nH]c2ccc(O)cc12 [5-HT]
G protein activation ([35S]GTPγS loading, in words) [8]: only seen at the Gi fusion | calcium release (in words) [1]: do not cause calcium release | BRET response (in words) [9]: reliable and substantial serotonin response

COc1ccsc1CNCC[C@@]1(c2ccccn2)CCOC2(CCCC2)C1 [TRV130]
affinity shift vs unfused MOR (in words) [3]: shift compared to unfused MOR
